The results in this text go back to patent US20080194696A1 (priority 2006, published 2008).

Like-named read-outs stand apart in the source and are kept apart here.

What all share (assay type): biochemical
Experiment [1] deals with T1, norepinephrine (NE) transport (Rattus norvegicus, UniProt Q63380).
T1 construct: synaptosomal preparations were made from either whole brain (5-HT), striatum (DA) or hypothalamus (NE); from tissue; host or cells: rat hypothalamus synaptosomes
The experiment in a line: Inhibition of [3H]NE uptake in rat hypothalamus synaptosomes. The note with it: for inhibition at 0.5 µM: read-out: Uptake Inhibition % at 500 nM NE; for Uptake Inhibition % at 500 nM NE: 500 nM test compound, rat hypothalamus synaptosomes, [3H]NE, 20 min at 37° C. As for the experimental part: (§1) The effects of arylbicyclo[3.1.0]hexylamines of the invention for inhibiting transport of norepinephrine (NE) and/or dopamine (DA) and/or serotonin (5-HT) were evaluated using preparations of synaptosomes from different regions of the rat brain according to previously-reported techniques.
(§2) Whole brains were obtained from normal rats, and synaptosomal preparations were made from either whole brain (5-HT), striatum (DA) or hypothalamus (NE) by gentle disruption in 10 volumes (w/v) of 0.32 M sucrose (0-4° C.) using a Teflon-glass homogenizer. The homogenate was then centrifuged at 1000×g for 10 min. The supernatant was retained and centrifuged at 23000 g for 20 min. The resulting pellet was gently resuspended in 200 volumes of 0.32 M sucrose (0-4° C.) using a teflon-glass homogenizer. Aliquots (250 μL) of this preparation were added to tubes, along with 0.2 μCi/mL of [^3H]5-HT, [^3H]DA, or [^3H]NE, 200 μL of selected 1-arylbicyclo[3.1.0]hexanamine test compounds (to yield final concentrations of 500 nM) and 1 mL of Krebs-Ringer bicarbonate buffer (pH 7.4). […] At the end of this period, the assay was terminated by rapid filtration over Whatman GF/C glass fiber filters. The filters were rinsed 3 times with 4 ml of Krebs-Ringer bicarbonate buffer (0-4° C.), and the radioactivity retained on the filters was measured by liquid scintillation spectrometry.

In experiment [2] the target is T2, serotonin (5-HT) transport (Rattus norvegicus, UniProt P31652). The experiment in a line: Inhibition of [3H]5-HT uptake in rat whole brain synaptosomes. The conditions noted are these: for inhibition at 0.5 µM: read-out: Uptake Inhibition % at 500 nM 5-HT; for Uptake Inhibition % at 500 nM 5-HT: 500 nM test compound, rat whole brain synaptosomes, [3H]5-HT, 15 min at 37° C. As for the experimental part:
as §1, §2

Experiment [3] deals with T3, dopamine (DA) transport (Rattus norvegicus, UniProt P23977). Briefly: Inhibition of [3H]DA uptake in rat striatum synaptosomes. More on the design: synaptosomal preparations were made from either whole brain (5-HT), striatum (DA) or hypothalamus (NE); from tissue; host or cells: rat striatum synaptosomes. The conditions noted are these: for inhibition at 0.5 µM: read-out: Uptake Inhibition % at 500 nM DA; for Uptake Inhibition % at 500 nM DA: 500 nM test compound, 15 min at 37° C. As for the experimental part: as §1
as §2, with “([…])” for “(to yield final concentrations of 500 nM)”
Target sequence in this assay (P23977 whole entry): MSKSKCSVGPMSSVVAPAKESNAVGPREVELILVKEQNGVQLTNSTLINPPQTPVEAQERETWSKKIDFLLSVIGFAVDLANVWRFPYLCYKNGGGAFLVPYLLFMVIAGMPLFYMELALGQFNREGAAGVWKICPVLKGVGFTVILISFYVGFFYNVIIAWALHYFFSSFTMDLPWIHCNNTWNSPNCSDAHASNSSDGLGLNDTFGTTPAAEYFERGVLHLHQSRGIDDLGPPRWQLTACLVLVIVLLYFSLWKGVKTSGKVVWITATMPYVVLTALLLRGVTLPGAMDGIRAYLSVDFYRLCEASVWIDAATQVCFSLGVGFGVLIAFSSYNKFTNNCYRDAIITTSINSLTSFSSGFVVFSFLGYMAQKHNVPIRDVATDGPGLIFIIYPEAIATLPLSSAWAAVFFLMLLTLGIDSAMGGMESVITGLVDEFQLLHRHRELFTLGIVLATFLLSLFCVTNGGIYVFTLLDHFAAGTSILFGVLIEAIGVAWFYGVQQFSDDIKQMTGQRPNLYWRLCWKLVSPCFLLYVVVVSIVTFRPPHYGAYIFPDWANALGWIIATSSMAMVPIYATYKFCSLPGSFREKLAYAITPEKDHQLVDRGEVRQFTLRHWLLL

Experiment [4] has as its target T1, norepinephrine (NE) transport. Briefly: Inhibition of [3H]NE uptake in rat hypothalamus synaptosomes.
Experiment [5] deals with T2, serotonin (5-HT) transport. The experiment in a line: Inhibition of [3H]5-HT uptake in rat whole brain synaptosomes.
Experiment [6] has as its target T3, dopamine (DA) transport. The experiment in a line: Inhibition of [3H]DA uptake in rat striatum synaptosomes. As for the experimental part: as §1
as §2, with “([…])” for “(to yield final concentrations of 500 nM)”
Target sequence in this assay (P23977 whole entry, looked up): as the sequence (P23977 whole entry) above

Setting [7] is: rat striatum synaptosomes, [3H]DA, read-out: Uptake IC50 (nM) DA.
Setting [8] is: rat striatum synaptosomes, [3H]DA.

T2 sequence (P31652 whole entry): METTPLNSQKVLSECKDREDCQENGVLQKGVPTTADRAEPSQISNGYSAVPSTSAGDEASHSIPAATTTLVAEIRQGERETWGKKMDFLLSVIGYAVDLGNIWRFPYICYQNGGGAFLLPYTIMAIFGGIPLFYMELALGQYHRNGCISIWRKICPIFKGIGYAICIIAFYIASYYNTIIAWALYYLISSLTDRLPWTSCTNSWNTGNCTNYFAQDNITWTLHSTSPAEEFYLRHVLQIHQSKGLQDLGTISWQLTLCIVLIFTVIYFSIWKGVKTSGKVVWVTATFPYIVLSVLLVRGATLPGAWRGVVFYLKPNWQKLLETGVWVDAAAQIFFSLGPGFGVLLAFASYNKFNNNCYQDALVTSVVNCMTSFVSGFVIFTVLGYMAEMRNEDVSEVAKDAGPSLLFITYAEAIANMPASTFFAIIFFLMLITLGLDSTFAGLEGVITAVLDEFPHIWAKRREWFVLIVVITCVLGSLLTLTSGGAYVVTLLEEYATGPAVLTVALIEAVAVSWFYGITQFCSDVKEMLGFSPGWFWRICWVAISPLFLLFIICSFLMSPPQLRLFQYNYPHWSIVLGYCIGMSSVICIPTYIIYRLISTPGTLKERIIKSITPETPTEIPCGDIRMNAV
T1 sequence (Q63380 1-617): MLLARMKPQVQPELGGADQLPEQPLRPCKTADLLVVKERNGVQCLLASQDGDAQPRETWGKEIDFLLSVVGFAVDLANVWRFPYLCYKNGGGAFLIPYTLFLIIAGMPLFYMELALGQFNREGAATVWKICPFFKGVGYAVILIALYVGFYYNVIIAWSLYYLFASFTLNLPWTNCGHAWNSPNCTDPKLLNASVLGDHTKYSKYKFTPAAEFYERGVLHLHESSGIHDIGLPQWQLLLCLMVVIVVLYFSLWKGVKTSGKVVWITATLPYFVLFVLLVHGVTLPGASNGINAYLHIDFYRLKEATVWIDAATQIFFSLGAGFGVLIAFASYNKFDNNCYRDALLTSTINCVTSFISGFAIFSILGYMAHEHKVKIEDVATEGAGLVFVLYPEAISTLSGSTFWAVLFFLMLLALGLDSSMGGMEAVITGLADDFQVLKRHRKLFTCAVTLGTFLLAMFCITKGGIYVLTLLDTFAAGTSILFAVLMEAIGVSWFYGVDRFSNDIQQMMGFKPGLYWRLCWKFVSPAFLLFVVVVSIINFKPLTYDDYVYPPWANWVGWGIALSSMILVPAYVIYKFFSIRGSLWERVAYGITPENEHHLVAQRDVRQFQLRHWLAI

A word on the inhibition: it is the change of the read-out against control, counted positive when it falls. In the case of `NC1C[C@@H]2C[C@]2(c2ccc(Cl)c(Cl)c2)C1` (stereo partly shown), the figures for the inhibition at 0.5 µM (in experiment [1]; in experiment [2]; on dopamine (DA) transport [3]) were 59%, 75% and 83%, respectively.
Usually IC50 stands for the concentration that inhibits the measured activity by half. On to `NC1C[C@H]2C[C@@]2(c2cccc3ccccc23)C1` (stereo partly shown), for which the inhibition at 0.5 µM in experiment [1] was 76%; in experiment [2], 65%; at dopamine (DA) transport [3], 53%. Moreover, the IC50 in experiment [4] worked out at 282 nM; in experiment [5], 425 nM; at dopamine (DA) transport [3] (setting [7]), 496 nM.
For the compound `Cc1ccc(C23CCC(N)C2C3)cc1` (stereo not shown), the inhibition at 0.5 µM in experiment [1] is 50%; in experiment [2] it was 25%; on dopamine (DA) transport [3], 31%.
With `CNC1CCC2(c3ccc(C)cc3)CC12` (stereo not shown), the IC50 in experiment [1] came out at 0.313 µM; in experiment [2], 1.19 µM; against dopamine (DA) transport [3], 858 nM. For the same compound, the inhibition at 0.5 µM in experiment [1] came to 89%; in experiment [2], 37%; on dopamine (DA) transport [3] it was 63%.
With `Cc1ccc(C23CCC(N(C)C)C2C3)cc1` (stereo not shown), the inhibition at 0.5 µM in experiment [1] turned out to be 57%; in experiment [2], 44%; on dopamine (DA) transport [3], 55%.
As for `CNC1CCC2(c3ccc(Cl)c(Cl)c3)CC12` (stereo not shown), the half-inhibitory concentration (IC50) in experiment [1] was determined as 0.444 µM; in experiment [2] it was 0.075 µM; against dopamine (DA) transport [3] it was 360 nM. The values for the inhibition at 0.5 µM (in experiment [1]; in experiment [2]; at dopamine (DA) transport [3]) were 63%, 94% and 56%, respectively.
For `CN(C)C1CCC2(c3ccc(Cl)c(Cl)c3)CC12` (stereo not shown), the inhibition at 0.5 µM in experiment [1] turned out to be 29%; in experiment [2], 95%; on dopamine (DA) transport [3] it was 34%.
For `CNC1CCC2(c3cccc4ccccc34)CC12` (stereo not shown) the same measures were 49%, 90% and 29%.
For the compound `CN(C)C1CCC2(c3cccc4ccccc34)CC12` (stereo not shown), the inhibition at 0.5 µM in experiment [1] is 25%; in experiment [2] it was 76%; at dopamine (DA) transport [3], 15%.
As for `CNC1CCC2(c3ccc4ccccc4c3)CC12` (stereo not shown), the values for the inhibition at 0.5 µM (in experiment [1]; in experiment [2]; at dopamine (DA) transport [3]) were 47%, 90% and 45%, respectively.
As to `CN(C)C1CCC2(c3ccc4ccccc4c3)CC12` (stereo not shown), the inhibition at 0.5 µM in experiment [1] amounted to 26%; in experiment [2], 96%; at dopamine (DA) transport [3] it was 42%.
The compound `NC1C[C@H]2C[C@@]2(c2ccc(Cl)c(Cl)c2)C1` (stereo partly shown) registered an IC50 against dopamine (DA) transport [6] of 0.06 µM.
Turning to 5-p-tolylbicyclo[3.1.0]hexan-2-amine, the “Uptake Inhibition % at 500 nM NE” value in experiment [1] was found to be 42%. Besides, in experiment [2], the “Uptake Inhibition % at 500 nM 5-HT” value is 74%. Also, on dopamine (DA) transport [3] (setting [8]), the “Uptake Inhibition % at 500 nM DA” value is 39%.
For `CN(C)C1CCC2CC21c1ccc(Cl)c(Cl)c1` (stereo not shown) [1-(3,4-dichlorophenyl)-N,N-dimethylbicyclo[3.1.0]hexan-2-amine], the IC50 came to 0.011 µM in experiment [1], 1.24 µM in experiment [2] and 9 nM against dopamine (DA) transport [3]. Besides, the inhibition at 0.5 µM was found to be 96% in experiment [1], 38% in experiment [2] and 99% on dopamine (DA) transport [3].
On to `CNC1CCC2CC21c1ccc(Cl)c(Cl)c1` (stereo not shown) [1-(3,4-dichlorophenyl)-N-methylbicyclo[3.1.0]hexan-2-amine], for which the IC50 in experiment [1] was 0.018 µM; in experiment [5] it was 3680 nM; on dopamine (DA) transport [3], 3 nM. Also, the inhibition at 0.5 µM in experiment [1] turned out to be 94%; in experiment [2], 15%; at dopamine (DA) transport [3] it was 101%.
Turning to `NC1CCC2CC12c1ccc(Cl)c(Cl)c1` (stereo not shown) [1-(3,4-dichlorophenyl)bicyclo[3.1.0]hexan-2-amine], the inhibition at 0.5 µM in experiment [1] is 34%; in experiment [2] it was 5%; on dopamine (DA) transport [3], 86%.
Take `NC1CC2CC2(c2ccc(Cl)c(Cl)c2)C1` (stereo not shown) [1-(3,4-dichlorophenyl)bicyclo[3.1.0]hexan-3-amine]: the inhibition at 0.5 µM came to 76% in experiment [1], 89% in experiment [2] and 77% at dopamine (DA) transport [3]. Moreover, the half-maximal inhibitory concentration (IC50) was found to be 126 nM in experiment [4], 38 nM in experiment [5] and 111 nM on dopamine (DA) transport [3] (setting [7]).
Turning to `Cc1ccc(C23CC2CCC3N)cc1` (stereo not shown) [1-p-tolylbicyclo[3.1.0]hexan-2-amine], the inhibition at 0.5 µM in experiment [1] was 14%; in experiment [2], 20%; on dopamine (DA) transport [3] it was 18%.
For `Cc1ccc(C23CC(N)CC2C3)cc1` (stereo not shown) [1-p-tolylbicyclo[3.1.0]hexan-3-amine], the values for the inhibition at 0.5 µM (in experiment [1]; in experiment [2]; at dopamine (DA) transport [3]) were 38%, 21% and 44%, respectively.
Take `Cc1ccc(C23CC2CCC3N(C)C)cc1` (stereo not shown) [N,N-dimethyl-1-p-tolylbicyclo[3.1.0]hexan-2-amine]: the half-inhibitory concentration (IC50) in experiment [1] is 2.09 µM; in experiment [2], more than 5 µM; against dopamine (DA) transport [3] it was 335 nM. In addition, the inhibition at 0.5 µM was determined as 71% in experiment [1], 0% in experiment [2] and 70% on dopamine (DA) transport [3].
Regarding `Cc1ccc(C23CC(N(C)C)CC2C3)cc1` (stereo not shown) [N,N-dimethyl-1-p-tolylbicyclo[3.1.0]hexan-3-amine], the inhibition at 0.5 µM stood at 50% in experiment [1], 66% in experiment [2] and 0% at dopamine (DA) transport [3].
For `CNC1CCC2CC21c1ccc(C)cc1` (stereo not shown) [N-methyl-1-p-tolylbicyclo[3.1.0]hexan-2-amine] the same measures were 8%, 4% and 33%.
For `CNC1CC2CC2(c2ccc(C)cc2)C1` (stereo not shown) [N-methyl-1-p-tolylbicyclo[3.1.0]hexan-3-amine] the same measures were 73%, 69% and 43%.
On to “N-methyl-5-p-tolylbicyclo[3.1.0]hexan-2-amine”, for which the “Uptake Inhibition % at 500 nM NE” value in experiment [1] turned out to be 81%. Also, the “Uptake Inhibition % at 500 nM 5-HT” value in experiment [2] was found to be 82%. Besides, the IC50 in experiment [4] came to 74 nM; in experiment [5] it was 76 nM; on dopamine (DA) transport [3] (setting [7]), 8730 nM. Further, the “Uptake Inhibition % at 500 nM DA” value at dopamine (DA) transport [3] (setting [8]) is 23%.
